Measured values from PMC10180065, “Mechanistic Studies of Arene–Ruthenium(II) Complexes with Carbothioamidopyrazoles as Alternative Cancer Drugs” (Molecules, 2023).
Like-named read-outs stand apart in the source and are kept apart here.

Columns and labels:
Hep 3b = experiment: MTT cytotoxicity, Hep 3b; type: cell-based, human; settings: 48 h incubation, read-out: Cytotoxic effect, IC50
Procedure: (§1) Cytotoxicity was evaluated against fifteen adherent human cancer cell lines using the MTT test: colorectal adenocarcinoma cells Caco2 (ATCC® HTB-37™), colorectal adenocarcinoma cells HT29 (ATCC® HTB-38™), colon colorectal carcinoma HCT116 (ATCC® CCL-247™), colon adenocarcinoma COLO205 (ATCC® CCL-222™), colorectal adenocarcinoma SW620 (ATCC® CCL-227™), colorectal adenocarcinoma grade IV LoVo (ATCC® CCL-229™), hepatocellular carcinoma Hep 3b (ATCC® HB-8064™), endometrium adenocarcinoma HEC1A (ATCC® HTB-112™), Ishikawa (99040201; Sigma–Aldrich Sigma, St. Louis, MO, USA), cervical adenocarcinoma cells HeLa (ATCC® CCL-2™), lung epithelial carcinoma A549 (ATCC® CRM-CCL-185™), breast epithelial adenocarcinoma cell positive for estrogen and progesterone receptors MCF7 (ATCC® HTB-22™) and negative for expression of estrogen receptor HCC38 (ATCC® CRL-2314™), acute promyelocytic leukemia HL-60 (ATCC® CCL-240™), skin melanoma WM115 (ATCC® CRL-1676™), and 1 suspension cancer cell line: acute lymphoblastic leukemia NALM6 (purchased from the German Collection of Microorganisms and Cell Cultures). HT29, NALM6, HCC-38 and HL-60 cells were cultured in RPMI 1640 medium (Thermo Fisher Scientific, Waltham, MA, USA) supplemented with 10% fetal bovine serum and antibiotic (gentamicin 25 μg ml^−1) (Gibco, Grand Island, New York, NY, USA). For the remaining tumor cell lines, Dulbecco’s minimal essential medium (DMEM, Lonza, Visp, Switzerland) supplemented with 10% fetal bovine serum and antibiotic instead of RPMI 1640 was used. In addition, Human Microvascular Endothelial Cells (HMEC1), which were obtained from the American Type Culture Collection (Manassas, VA, USA), were used as a model of normal cells. HMEC-1 were cultured in MCDB131 medium (Corning Life Sciences, Corning, NY, USA), supplemented with 10% fetal bovine serum, 10 ng/mL Epidermal Growth Factor (Millipore, Burlington, MA, USA) and 10 mM glutamine (Corning Life Sciences). All cells were grown at 37 °C in humidified atmosphere of 5% CO2 in air. The exponential growth of cells was maintained by regular passaging at 90% confluence three times a week using 0.025% trypsin/EDTA (Gibco, Grand Island, New York, NY, USA).
(§2) The cytotoxicity was tested by a standard MTT [3-(4,5-dimethylthiazol-2-yl)-2,5-diphenyltetrazolium bromide] (Sigma, St. Louis, MO, USA) microplate cell viability assay. The anticancer activity of the investigated compounds was evaluated in vitro on the basis of their ability to inhibit the proliferation of various cancer cells. Exponentially growing cells were seeded a day before the experiment into a 96-well microplate (Nunc, Roskilde, Denmark) at a density up to 6–8 × 10^3 cells/mL (depending on the cell line) and exposed to the test compounds at a wide range of concentrations for 48 h. Subsequently, various concentrations of the studied compounds (10^−7–10^−5 M) freshly prepared in DMSO (final concentration of <0.1% DMSO) and diluted with complete culture medium were added. After 48 h incubation, the cells were immediately subjected to a cell viability assay. At this time point, the number of viable cells in each well was estimated by the MTT test. Briefly, 50 µL (5 mg/mL final concentration) of MTT was added to each microplate well. This procedure was then followed by a three- to four-hour incubation at 37 °C. After incubation, MTT solution was replaced with 100 µL DMSO/well, which solubilized the formazan crystals formed by the dehydrogenases of metabolically active cells. Purple formazan absorbance was measured spectrophotometrically at 570 nm.

NALM6 = experiment: MTT cytotoxicity, NALM6; type: cell-based, human; settings: read-out: Cytotoxic effect, IC50
Procedure: as §1, §2

SW620 = experiment: MTT cytotoxicity, SW620; type: cell-based, human; settings: read-out: Cytotoxic effect, IC50
Procedure: as §1, §2

HL60 = experiment: MTT cytotoxicity, HL60; type: cell-based, human; settings: read-out: Cytotoxic effect, IC50
Procedure: as §1, §2

MCF7 = experiment: MTT cytotoxicity, MCF7; type: cell-based, human; settings: 48 h incubation, read-out: Cytotoxic effect, IC50
Procedure: as §1, §2

LoVo = experiment: MTT cytotoxicity, LoVo; type: cell-based, human; settings: 48 h incubation, read-out: Cytotoxic effect, IC50
Procedure: as §1, §2

Ishikawa = experiment: MTT cytotoxicity, Ishikawa; type: cell-based, human; settings: 48 h incubation, read-out: Cytotoxic effect, IC50
Procedure: as §1, §2

A549 = experiment: MTT cytotoxicity, A549; type: cell-based, human; settings: 48 h incubation, read-out: Cytotoxic effect, IC50
Procedure: as §1, §2

HCC38 = experiment: MTT cytotoxicity, HCC38; type: cell-based, human; settings: 48 h incubation, read-out: Cytotoxic effect, IC50
Procedure: as §1, §2

Caco2 = experiment: MTT cytotoxicity, Caco2; type: cell-based, human; settings: read-out: Cytotoxic effect, IC50
Procedure: as §1, §2

Hela = experiment: MTT cytotoxicity, Hela; type: cell-based, human; settings: 48 h incubation, read-out: Cytotoxic effect, IC50
Procedure: as §1, §2

Colo205 = experiment: MTT cytotoxicity, Colo205; type: cell-based, human; settings: read-out: Cytotoxic effect, IC50
Procedure: as §1, §2

HT29 = experiment: MTT cytotoxicity, HT29; type: cell-based, human; settings: read-out: Cytotoxic effect, IC50
Procedure: as §1, §2

WM115 = experiment: MTT cytotoxicity, WM115; type: cell-based, human; settings: read-out: Cytotoxic effect, IC50
Procedure: as §1, §2

HEC1A = experiment: MTT cytotoxicity, HEC1A; type: cell-based, human; settings: 48 h incubation, read-out: Cytotoxic effect, IC50
Procedure: as §1, §2

Lipophilicity by RP-TLC = type: physicochemical; parameters: key: RM = log(1/Rf − 1), Rf = a/b; settings: eluent AcCN: H2O at 30–70% v/v, 22 °C
Procedure: All the experimental solutions of standard substances (0.1 mg/mL) were prepared by dissolving ligands (1a–1d) or ruthenium complexes (2a/3a–2d/3d) in ethanol. Commercially-available octadecyl-modified silica aluminum sheets (20 × 20 cm) were cut into 5 × 10 cm plates. The plates were manually spotted with 1.0 μL of freshly prepared solutions using automatic pipets, 5 mm from each edge. The chromatograms for all compounds (1a/2a/3a–1d/2d/3d) were developed using a horizontal developing chamber and the solvent migration distance was about 4.5 cm. The plates were visually inspected under UV light at 254 nm. Each zone was clearly marked and its distance was manually measured. The RP-TLC analyses of lipophilicity were performed at ambient temperature (22 °C). In this experiment, all measurements were performed in triplicate and the obtained results were used in further calculations. The acetonitrile and water mixtures for ligands 1a–1d and arene–ruthenium(II) complexes 2a/3a–2d/3d were used as mobile phases, with […] content increasing in the range of 30–70% v/v, at 5% intervals. Values of the chromatographic retention coefficient Rf (as shown Formula (1)) and RM (as shown Formula (2)), based on received chromatograms, were calculated and converted as follows:(1) Rf=a/b (2) RM=log1/Rf−1

[1] = Homo sapiens, NALM-6, 48 h incubation
[2] = Homo sapiens, SW-620, 48 h incubation
[3] = Homo sapiens, HL-60, 48 h incubation
[4] = Homo sapiens, Caco-2, 48 h incubation
[5] = Homo sapiens, COLO 205, 48 h incubation
[6] = Homo sapiens, HT-29, 48 h incubation
[7] = Homo sapiens, WM-115, 48 h incubation

Lipophilicity, RM (Lipophilicity by RP-TLC)	SMILES	IC50 (Hep 3b; Homo sapiens, Hep3B) [µM]	IC50 (NALM6; [1]) [µM]	IC50 (SW620; [2]) [µM]	IC50 (HL60; [3]) [µM]	IC50 (MCF7; Homo sapiens) [µM]	IC50 (LoVo; Homo sapiens) [µM]	IC50 (Ishikawa; Homo sapiens) [µM]	IC50 (A549; Homo sapiens) [µM]	IC50 (HCC38; Homo sapiens) [µM]	IC50 (Caco2; [4]) [µM]	IC50 (Hela; Homo sapiens) [µM]	IC50 (Colo205; [5]) [µM]	IC50 (HT29; [6]) [µM]	IC50 (WM115; [7]) [µM]	IC50 (HEC1A; Homo sapiens, HEC-1-A) [µM]	IC50 (Hep 3b) [µM]	IC50 (NALM6; 48 h incubation) [µM]	IC50 (SW620; 48 h incubation) [µM]	IC50 (HL60; 48 h incubation) [µM]	other results
1.29	Cc1cc(O)n(C(N)=S)n1 [1d]	> 200	> 200	> 200	> 200	> 200	> 200	> 200	> 200	> 200	> 200	> 200	> 200	> 200	90.9 ± 10.2	99.1 ± 5.7	–	–	–	–	–
2.51	CCc1cc(CC)n(C(N)=S)n1 [1b]	> 200	> 200	> 200	> 200	> 200	> 200	100 ± 4.6	> 200	> 200	> 200	> 200	> 200	> 200	> 200	114 ± 11.3	–	–	–	–	–
2.39	Cc1cc(O)n(C(N)=S)n1.Cc1ccc(C(C)C)cc1.F[P-](F)(F)(F)(F)F.[Cl-].[Ru+2] [3d]	–	–	–	–	–	–	–	–	–	–	–	–	–	–	–	> 200	> 200	> 200	> 200	IC50 (MCF7): > 200 µM; IC50 (LoVo): 110 ± 6.9 µM; IC50 (Ishikawa): > 200 µM; IC50 (A549): 152 ± 2.8 µM; IC50 (HCC38): 188 ± 6.4 µM; IC50 (Caco2; 48 h incubation): 162 ± 6.1 µM; IC50 (Hela): > 200 µM; IC50 (Colo205; 48 h incubation): > 200 µM; IC50 (HT29; 48 h incubation): 185.2 ± 1.8 µM; IC50 (WM115; 48 h incubation): > 200 µM; IC50 (HEC1A): 128 ± 2.1 µM
2.04	NC(=S)n1nc(-c2ccccc2)cc1O [1c]	> 200	152 ± 26.7	> 200	> 200	> 200	> 200	94 ± 2.4	> 200	> 200	> 200	> 200	> 200	> 200	> 200	110 ± 8.9	–	–	–	–	–
–	Cc1ccc(C(C)C)cc1.Cc1ccc(C(C)C)cc1.[Cl][Ru][Cl].[Cl][Ru][Cl] [compound 4, dichloro(p-cymene)ruthenium(II), reference compound]	–	–	–	–	–	–	–	–	–	–	–	–	–	–	–	167 ± 6.8	> 200	> 200	> 200	IC50 (MCF7): > 200 µM; IC50 (LoVo): 168 ± 7 µM; IC50 (Ishikawa): 120 ± 7.2 µM; IC50 (A549): > 200 µM; IC50 (HCC38): > 200 µM; IC50 (Caco2; 48 h incubation): > 200 µM; IC50 (Hela): > 200 µM; IC50 (Colo205; 48 h incubation): > 200 µM; IC50 (HT29; 48 h incubation): > 200 µM; IC50 (WM115; 48 h incubation): > 200 µM; IC50 (HEC1A): 108 ± 3.4 µM
